Entries after “also recorded” stand apart in the source; their conditions may differ.
Key:
NMRI mice [1] = assay: Formalin paw test; format: in vivo; details: 100 mg/kg p.o., 120 minutes before the test; FIG. 6
Experimental: The method, which detects analgesic/anti-inflammatory activity, follows that described by Wheeler-Aceto et al (Wheeler-Aceto et al., 1991). NMRI mice were given an intraplantar injection of 5% formalin (25 μl) into the posterior left paw. […] The time spent licking was counted for 15 minutes, beginning 15 minutes after injection of formalin. 10 mice were studied per group. The test was performed blind. S-Licarbazepine and R-licarbazepine were tested at the dose of 100 mg/kg p.o., administered 120 minutes before the test (i.e. […]), and compared with a vehicle control group in each experiment.

P-gp or MRP = details: cited from earlier work; for category of P-gp or MRP substrates: AEDs listed in the discussion
[2] = system: patients with drug-resistant epilepsy; details: six months after initiation of therapy; 120 patients who had tried at least 3-4 other AEDs; cited from earlier work
P-glycoprotein (P-gp) = P-glycoprotein (P-gp) (Mus musculus, UniProt P21447); assay: Brain/plasma ratio in mice pre-treated with the P-gp inhibitor verapamil; details: for substrate for P-gp: concluded from verapamil pre-treatment; for effect of verapamil on brain/plasma ratio: verapamil 20 mg/kg 30 min before 100 mg/kg intraperitoneally, FIG. 2
Chain of P-glycoprotein (P-gp) (P21447 whole entry): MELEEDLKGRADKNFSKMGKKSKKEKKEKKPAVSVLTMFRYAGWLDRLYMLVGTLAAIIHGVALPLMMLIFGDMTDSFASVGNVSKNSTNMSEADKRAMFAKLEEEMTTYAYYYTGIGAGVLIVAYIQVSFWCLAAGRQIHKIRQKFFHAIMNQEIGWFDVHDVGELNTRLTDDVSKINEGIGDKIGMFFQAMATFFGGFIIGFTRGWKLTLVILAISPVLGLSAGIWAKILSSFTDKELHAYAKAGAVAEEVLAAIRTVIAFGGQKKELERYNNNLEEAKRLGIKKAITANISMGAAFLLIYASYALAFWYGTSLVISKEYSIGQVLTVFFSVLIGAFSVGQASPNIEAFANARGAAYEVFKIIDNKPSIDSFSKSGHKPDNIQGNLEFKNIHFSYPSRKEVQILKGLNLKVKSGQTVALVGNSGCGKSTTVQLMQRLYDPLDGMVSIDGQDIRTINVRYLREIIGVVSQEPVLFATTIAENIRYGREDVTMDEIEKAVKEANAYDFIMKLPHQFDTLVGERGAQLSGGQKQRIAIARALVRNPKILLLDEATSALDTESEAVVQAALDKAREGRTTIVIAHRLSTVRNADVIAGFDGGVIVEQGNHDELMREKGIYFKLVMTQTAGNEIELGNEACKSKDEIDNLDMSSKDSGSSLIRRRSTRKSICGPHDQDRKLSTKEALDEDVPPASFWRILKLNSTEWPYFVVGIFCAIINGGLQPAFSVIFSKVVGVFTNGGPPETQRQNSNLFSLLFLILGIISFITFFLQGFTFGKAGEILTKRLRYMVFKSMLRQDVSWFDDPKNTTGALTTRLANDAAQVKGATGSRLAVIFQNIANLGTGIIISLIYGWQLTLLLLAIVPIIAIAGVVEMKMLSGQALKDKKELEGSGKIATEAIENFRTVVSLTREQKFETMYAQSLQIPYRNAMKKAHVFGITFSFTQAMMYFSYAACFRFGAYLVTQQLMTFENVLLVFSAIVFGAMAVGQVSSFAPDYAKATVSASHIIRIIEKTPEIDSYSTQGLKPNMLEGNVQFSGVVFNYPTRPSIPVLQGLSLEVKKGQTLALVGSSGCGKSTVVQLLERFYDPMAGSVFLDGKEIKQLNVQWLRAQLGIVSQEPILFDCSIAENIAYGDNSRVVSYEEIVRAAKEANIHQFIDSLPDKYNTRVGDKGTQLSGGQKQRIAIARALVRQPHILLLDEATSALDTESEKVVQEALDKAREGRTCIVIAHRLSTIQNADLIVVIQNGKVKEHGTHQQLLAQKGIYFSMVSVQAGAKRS
Experimental: (§2) CD-1 mice weighing 30-35 g were maintained under controlled environmental conditions (23-24° C.) for at least 5 days before the experiment. […] In the second series of experiments, mice pre-treated with vehicle, verapamil (20 mg/kg) or probenecid (100 mg/kg) were given 30 min later intraperitoneally S-licarbazepine or R-licarbazepine (100 mg/kg). […] After collection of blood, plasma was obtained by centrifugation. Brain samples were homogenised in phosphate buffer (pH 5; 4 mL/g) followed by centrifugation and collection of the supernatant. Plasma and the tissue supernatant were stored frozen until analysis. The assay of S-licarbazepine and R-licarbazepine was performed using a HPLC-UV or LC-MS method following solid phase extraction.

[3] = system: Multiple Resistant Proteins (MRP); assay: Brain/plasma ratio in mice pre-treated with the MRP inhibitor probenecid; details: for substrate for MRP: concluded from probenecid pre-treatment
Experimental: as §2

[4] = Plasma pharmacokinetics after oral administration to CD-1 mice; format: in vivo
Source text: (§1) The following pharmacokinetic parameters for S-licarbazepine and R-licarbazepine were derived by non-compartmental analysis from the concentration versus time profiles: maximum observed plasma drug concentration (Cmax), time at which the Cmax occurred (tmax), area under the plasma concentration versus time curve (AUC) from time zero to the last sampling time at which concentrations were at or above the limit of quantification (AUC0-t) and AUC from time zero to infinity (AUC0-∞), elimination half-life (t1/2) and mean residence time (MRT). The pharmacokinetic parameters were determined using WinNonlin (version 4.0). Summary statistics of all data for each treatment and scheduled sampling times were reported, as appropriate, using the geometric mean, arithmetic mean, standard deviation (SD), coefficient of variation (CV), median, minimum and maximum. The statistical package SAS Version 8.2 or higher (SAS Institute, Cary, USA) was used in all computations when considered appropriate.

[5] = Brain pharmacokinetics (brain access) after oral administration to CD-1 mice; format: in vivo; details: for presence of the opposite enantiomer in brain: analyte found after administration of the other enantiomer
Source text: as §1

NMRI mice [6] = assay: Corneal kindling procedure (acquisition of kindling); format: in vivo
Experimental: Vehicle (30% DMSO in distilled water) or the compounds dissolved in 30% DMSO were administered intraperitoneally twice daily. NMRI mice were stimulated twice daily (interstimulation interval 6-7 h) on twelve consecutive days. The electrostimulations with current intensities of 3 mA and duration of 3 s (pulse frequency 50 Hz) were applied via corneally placed saline-soaked copper electrodes. A stimulator was used to deliver a constant current regardless of the impedance of the test object. Seizure severity was ranked according to a modified system of Racine (Racine, 1972): 1, mild facial clonus and eye blinking; 2, severe facial clonus, head nodding, chewing; 3, unilateral or alternating forelimb clonus; 4, bilateral forelimb clonus with rearing […]; 5, bilateral forelimb clonus with rearing and falling; 6, tonic fore- and/or hindlimb extension.

[7] = system: partial epilepsy refractory patients; details: cited from earlier work
[8] = plasma, after 350 mg/kg R-licarbazepine oral, CD-1 mice
[9] = brain, after 350 mg/kg R-licarbazepine oral, CD-1 mice
[10] = 100 mg/kg twice daily, twelve days
[11] = eslicarbazepine acetate 100 mg/kg, i.p., FIG. 3

NCC1(CC(=O)O)CCCCC1 [Gabapentin]
licking time versus vehicle controls (NMRI mice [1]): significantly (p<0.05) decreased

CC[C@@H](C(N)=O)N1CCCC1=O [Levetiracetam]
substrate for either P-gp or MRP1/2 (P-gp or MRP; verapamil and probenecid did not increase brain penetration): not to be a substrate
patients seizure-free [2]: 32%

NC(=O)N1c2ccccc2C[C@@H](O)c2ccccc21 [R-licarbazepine]
substrate for P-gp (P-glycoprotein (P-gp)): is a substrate
effect of verapamil on brain/plasma ratio (P-glycoprotein (P-gp)): markedly increased; also recorded: equals that of S-licarbazepine in vehicle-treated animals
substrate for MRP [3]: not for MRP
absorption after oral administration ([4]; oral, CD-1 mice): rapidly absorbed
AUC0-∞ [4, 8]: 231.716 µg·h/mL
AUC(0-t) [4, 8]: 203.705 µg·h/mL
Cmax [4, 8]: 69946 ng/mL
MRT [4, 8]: 10.12 h
tmax [4, 8]: 0.25 h
t½ [4, 8]: 8.11 h
elimination half-life (t1/2) ([4]; plasma, approximate value stated for both enantiomers): ≈ 8 h
presence of the opposite enantiomer in brain [5]: almost negligible
AUC0-∞ [5, 9]: 60.037 µg·h/mL
AUC(0-t) [5, 9]: 51.516 µg·h/mL
Cmax [5, 9]: 8533 ng/mL
MRT [5, 9]: 11.34 h
tmax [5, 9]: 0.75 h
t½ [5, 9]: 7.91 h
licking time versus vehicle controls (NMRI mice [1]): did not attain statistical significance
effect on acquisition of kindling (NMRI mice [6]; 100 mg/kg twice daily intraperitoneally, twelve days): no inhibitory effect
adverse effects during the course of the experiment (NMRI mice [6]; [10]): no adverse effects were obvious
mean seizure severity versus vehicle control group (NMRI mice [6]; 100 mg/kg twice daily, S-lic: all sessions of first three days, R-lic: all sessions except afternoon of day 8): no significant differences
number of stimulations necessary to induce a seizure with a given severity score (NMRI mice [6]; 100 mg/kg twice daily, score 3 and 4 (S-lic), score 3, 4, 5 and 6 (R-lic), versus control): did not differ
animals that had reached the kindling criterion (at least one generalized seizure, score 4-6) (NMRI mice [6]; at termination of treatment, day 12): all of the treated animals

NC(=O)N1c2ccccc2C[C@H](O)c2ccccc21 [S-licarbazepine, (S)-(+)-10,11-dihydro-10-hydroxy-5H dibenz/b,f/azepine-5-carboxamide]
substrate for P-gp (P-glycoprotein (P-gp)): not a substrate
effect of verapamil on brain/plasma ratio (P-glycoprotein (P-gp)): failed to affect
substrate for MRP [3]: not a substrate
effect of probenecid on brain/plasma ratio ([3]; probenecid 100 mg/kg 30 min before 100 mg/kg intraperitoneally, FIG. 2): failed to affect
MRT ([4]; CD-1, mouse, oral, 350 mg/kg, plasma, approximate range stated for both enantiomers, read-out: mean residence time (MRT)): 10 to 12 h
half-life ([4]; CD-1, mouse, oral, 350 mg/kg, plasma, approximate value stated for both enantiomers, read-out: elimination half-life (t1/2) (converted)): ~8 h
AUC(0-t) ([4]; CD-1, mouse, plasma, po, 350 mg/kg, plasma, after 350 mg/kg R-licarbazepine oral, CD-1 mice, read-out: AUC0-t): 4.58 µg·h/mL
Cmax ([4]; CD-1, mouse, plasma, po, 350 mg/kg, plasma, after 350 mg/kg R-licarbazepine oral, CD-1 mice, read-out: Cmax): 1020 ng/mL
AUC(0-t) ([4]; CD-1, mouse, plasma, po, 350 mg/kg, plasma, after 350 mg/kg S-licarbazepine oral, CD-1 mice, read-out: AUC0-t): 187 µg·h/mL
Cmax ([4]; CD-1, mouse, plasma, po, 350 mg/kg, plasma, after 350 mg/kg S-licarbazepine oral, CD-1 mice, read-out: Cmax): 41300 ng/mL
amount detectable in plasma ([4]; S-licarbazepine in plasma after administration of R-licarbazepine): small amounts
AUC(0-inf) ([4]; mouse, plasma, after 350 mg/kg S-licarbazepine oral, CD-1 mice): 258 µg·h/mL
MRT ([4]; mouse, plasma, after 350 mg/kg S-licarbazepine oral, CD-1 mice, read-out: MRT): 11.7 h
tmax ([4]; mouse, plasma, after 350 mg/kg S-licarbazepine oral, CD-1 mice, read-out: tmax): 0.25 h
half-life ([4]; mouse, plasma, after 350 mg/kg S-licarbazepine oral, CD-1 mice, read-out: t½ (converted)): 7.93 h
absorption after oral administration ([4]; oral, CD-1 mice): rapidly absorbed
brain/plasma ratio (considering either Cmax or AUC) ([5]; FIG. 1, compared with R-licarbazepine): considerably greater
presence of the opposite enantiomer in brain [5]: almost negligible
AUCbrain(S-Licarbazepine)/AUCbrain(R-Licarbazepine) ([5]; brain exposure ratio, each enantiomer given orally 350 mg/kg): 1.9
AUC(0-inf) ([5]; mouse, brain, after 350 mg/kg S-licarbazepine oral, CD-1 mice): 111 µg·h/mL
AUC(0-t) ([5]; mouse, brain, after 350 mg/kg S-licarbazepine oral, CD-1 mice, read-out: AUC0-t): 109 µg·h/mL
Cmax ([5]; mouse, brain, after 350 mg/kg S-licarbazepine oral, CD-1 mice, read-out: Cmax): 12300 ng/mL
MRT ([5]; mouse, brain, after 350 mg/kg S-licarbazepine oral, CD-1 mice, read-out: MRT): 7.84 h
tmax ([5]; mouse, brain, after 350 mg/kg S-licarbazepine oral, CD-1 mice, read-out: tmax): 1 h
half-life ([5]; mouse, brain, after 350 mg/kg S-licarbazepine oral, CD-1 mice, read-out: t½ (converted)): 4.87 h
adverse effects during the course of the experiment (NMRI mice [6]; [10]): no adverse effects were obvious

NC(=O)N1c2ccccc2C=Cc2ccccc21 [carbamazepine]
category of P-gp or MRP substrates (P-gp or MRP): P-gp or MRP substrates

CC(=O)O[C@H]1Cc2ccccc2N(C(N)=O)c2ccccc21 [eslicarbazepine acetate, (S)-(−)-10-acetoxy-10,11-dihydro-5H-dibenz/b,f/azepine-5-carboxamide]
patients that became seizure free ([7]; 1 month after initiation of therapy): approximately 25%
efficacy in partial epilepsy refractory patients ([7]; administered once-daily): very efficacious
effect of verapamil on S-licarbazepine brain/plasma ratio after eslicarbazepine acetate (P-glycoprotein (P-gp); [11]): failed to affect
effect of probenecid on S-licarbazepine brain/plasma ratio after eslicarbazepine acetate [3, 11]: failed to affect

NC(=O)OCC(COC(N)=O)c1ccccc1 [felbamate]
category of P-gp or MRP substrates (P-gp or MRP): P-gp or MRP substrates

NC(=O)N1c2ccccc2CC(=O)c2ccccc21 [oxcarbazepine]
category of P-gp or MRP substrates (P-gp or MRP): P-gp or MRP substrates

CCC1(c2ccccc2)C(=O)NC(=O)NC1=O [phenobarbital]
category of P-gp or MRP substrates (P-gp or MRP): P-gp or MRP substrates

O=C1NC(=O)C(c2ccccc2)(c2ccccc2)N1 [phenytoin]
category of P-gp or MRP substrates (P-gp or MRP): P-gp or MRP substrates

Reference: patent publication US9763954B2, “Therapeutical uses of eslicarbazepine” (BIAL-PORTELA & CA, S.A., priority 2007, dated 2017)
